Target: T1, LRRK2 (G2019S) (Homo sapiens, UniProt Q5S007, G2019S)
T1 construct: Recombinant GST-LRRK2 (delta970), purified from baculovirus infected insect cells (SF9); GST (N); host or cells: baculovirus infected insect cells (SF9)
Experiment: LRRK2 inhibition, radiometric kinase assay with recombinant GST-LRRK2 (delta970) and peptide substrate
Format: biochemical
Details: GST-LRRK2 (delta970) G2019S 30 nM, ATP ~52 μM (Km), 30 min at 30° C.
Procedure: Compounds were assessed for inhibition of LRRK2 inhibition using the following procedure.
Recombinant GST-LRRK2 (delta970), purified from baculovirus infected insect cells (SF9), at least 90% pure and either wild-type sequence or bearing the pathogenic G2019S mutation, was combined into a kinase buffer at 30 nM concentration. Kinase buffer consists of 50 mM Tris HCl pH 7.4, 1 mM EDTA, and 50 μM peptide substrate (amino acid sequence […]). Experimental compounds or control (no compound) were added at desired concentrations in DMSO and water, where final concentration of DMSO in kinase reactions was 0.1% for all drug concentrations. Activation buffer that consists of a final concentration in the reactions of 10 mM MgCl2 and ATP (˜92 μM for WT-LRRK2 reactions and ˜52 μM for G2019S-LRRK2, which represent respective Km ATP concentrations) were added to each reaction, in addition to 0.5 μCi of gamma-32-P-dATP per reaction. Reactions were incubated at 1400 RPM at 30° C. for 30 min. and then spotted in triplicate directly onto a slot-blot apparatus fitted with phospho-cellulose paper and allowed to dry. Each slot was then washed with 10 mM phosphoric acid buffer until beta-radiation could not be detected in eluted wash buffer, usually ˜1 mL per slot. Paper within each slot were excised and radiation measured by liquid scintillation.

T1 sequence (Q5S007 970-2527 G2019S limits assumed): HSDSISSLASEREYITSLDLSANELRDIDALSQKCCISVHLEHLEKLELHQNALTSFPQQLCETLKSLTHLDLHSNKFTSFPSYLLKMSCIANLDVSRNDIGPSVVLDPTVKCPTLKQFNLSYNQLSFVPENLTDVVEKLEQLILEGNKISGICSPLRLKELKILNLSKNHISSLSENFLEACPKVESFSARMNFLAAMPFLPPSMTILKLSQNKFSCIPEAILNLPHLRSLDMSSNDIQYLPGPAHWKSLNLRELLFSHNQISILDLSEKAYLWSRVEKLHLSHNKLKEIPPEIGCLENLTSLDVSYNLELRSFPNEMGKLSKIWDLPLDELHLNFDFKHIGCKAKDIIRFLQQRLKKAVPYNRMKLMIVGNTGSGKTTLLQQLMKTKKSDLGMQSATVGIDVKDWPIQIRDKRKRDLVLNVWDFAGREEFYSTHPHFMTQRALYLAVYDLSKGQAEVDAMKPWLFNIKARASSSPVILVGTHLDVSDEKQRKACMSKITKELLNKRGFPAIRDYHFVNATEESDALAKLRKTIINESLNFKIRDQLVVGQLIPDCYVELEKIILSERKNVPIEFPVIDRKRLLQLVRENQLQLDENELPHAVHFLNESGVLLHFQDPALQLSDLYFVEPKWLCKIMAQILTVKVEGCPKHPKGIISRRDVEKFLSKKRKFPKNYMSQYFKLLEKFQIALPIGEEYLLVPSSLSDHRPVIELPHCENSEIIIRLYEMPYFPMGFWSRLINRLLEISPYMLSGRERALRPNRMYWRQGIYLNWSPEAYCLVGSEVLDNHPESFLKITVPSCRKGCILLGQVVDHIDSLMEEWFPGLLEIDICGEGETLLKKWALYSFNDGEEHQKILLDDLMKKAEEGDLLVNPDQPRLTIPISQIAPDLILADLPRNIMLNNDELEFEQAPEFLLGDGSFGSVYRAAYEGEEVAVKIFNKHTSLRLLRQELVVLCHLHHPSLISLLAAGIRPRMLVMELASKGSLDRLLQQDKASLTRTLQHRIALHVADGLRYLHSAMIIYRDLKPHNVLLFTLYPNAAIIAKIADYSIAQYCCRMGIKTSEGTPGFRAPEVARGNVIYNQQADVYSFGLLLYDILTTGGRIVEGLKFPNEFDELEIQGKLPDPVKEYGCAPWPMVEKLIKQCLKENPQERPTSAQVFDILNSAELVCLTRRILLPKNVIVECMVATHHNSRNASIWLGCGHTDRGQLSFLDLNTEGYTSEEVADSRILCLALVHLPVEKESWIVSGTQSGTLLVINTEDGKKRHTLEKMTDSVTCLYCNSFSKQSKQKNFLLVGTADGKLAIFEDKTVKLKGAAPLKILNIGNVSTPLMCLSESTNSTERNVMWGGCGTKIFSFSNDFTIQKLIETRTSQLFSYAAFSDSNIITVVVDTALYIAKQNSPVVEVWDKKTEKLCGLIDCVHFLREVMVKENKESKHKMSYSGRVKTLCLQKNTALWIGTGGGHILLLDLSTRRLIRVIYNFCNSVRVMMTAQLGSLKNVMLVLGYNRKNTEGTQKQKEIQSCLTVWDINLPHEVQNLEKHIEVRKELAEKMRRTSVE

IC50 [nM]	Compound
≥ 5000	NC(=O)CSc1ccc2nnc(-c3nccs3)n2n1 [Example 37, 2-((3-(thiazol-2-yl)-[1,2,4]triazolo[4,3-b]pyridazin-6-yl)thio)acetamide]
≥ 5000	O=C(O)CSc1ccc2nnc(-c3csc4ccccc34)n2n1 [Example 38, 2-((3-(benzo[b]thiophen-3-yl)-[1,2,4]triazolo[4,3-b]pyridazin-6-yl)thio)acetic acid]
≥ 5000	Cc1scc(-c2nnc3ccc(SCC(=O)O)nn23)c1-c1ccccc1 [Example 39, 2-((3-(5-methyl-4-phenylthiophen-3-yl)-[1,2,4]triazolo[4,3-b]pyridazin-6-yl)thio)acetic acid]
≥ 5000	Cc1scc(-c2nnc3ccc(SCC(N)=O)nn23)c1-c1ccccc1 [Example 40, 2-((3-(5-methyl-4-phenylthiophen-3-yl)-[1,2,4]triazolo[4,3-b]pyridazin-6-yl)thio)acetamide]
1000 to 5000	CCCCC(Sc1ccc2nnc(-c3cccs3)n2n1)C(=O)O (centres unmarked) [Example 41, 2-((3-(thiophen-2-yl)-[1,2,4]triazolo[4,3-b]pyridazin-6-yl)thio)hexanoic acid]
≥ 5000	O=C(O)CSc1ccc2nnc(-c3nccs3)n2n1 [Example 42, 2-((3-(thiazol-2-yl)-[1,2,4]triazolo[4,3-b]pyridazin-6-yl)thio)acetic acid]
≥ 5000	O=C(CSc1ccc2nnc(-c3ccc(F)cc3)n2n1)Nc1nccs1 [Example 43, 2-((3-(4-fluorophenyl)-[1,2,4]triazolo[4,3-b]pyridazin-6-yl)thio)-N-(thiazol-2-yl)acetamide]
< 100	CCC(Sc1ccc2nnc(-c3cccs3)n2n1)C(=O)N1CCCC1 (centres unmarked) [Example 46, 1-(pyrrolidin-1-yl)-2-((3-(thiophen-2-yl)-[1,2,4]triazolo[4,3-b]pyridazin-6-yl)thio)butan-1-one]
100 to 1000	CCC(Sc1ccc2nnc(-c3cccs3)n2n1)C(=O)N1CCOCC1 (centres unmarked) [Example 47, 1-morpholino-2-((3-(thiophen-2-yl)-[1,2,4]triazolo[4,3-b]pyridazin-6-yl)thio)butan-1-one]
100 to 1000	CCC(Sc1ccc2nnc(-c3cccs3)n2n1)C(=O)NCc1cccs1 (centres unmarked) [Example 48, 2-((3-(thiophen-2-yl)-[1,2,4]triazolo[4,3-b]pyridazin-6-yl)thio)-N-(thiophen-2-ylmethyl)butanamide]
100 to 1000	Cc1ccc(-c2nnc3ccc(SCC(N)=O)nn23)s1 [Example 49, 2-((3-(5-methylthiophen-2-yl)-[1,2,4]triazolo[4,3-b]pyridazin-6-yl)thio)acetamide]
≥ 5000	CCC(Sc1ccc2nnc(-c3cccs3)n2n1)C(=O)N1CCCCCC1 (centres unmarked) [Example 50, 1-(azepan-1-yl)-2-((3-(thiophen-2-yl)-[1,2,4]triazolo[4,3-b]pyridazin-6-yl)thio)butan-1-one]
100 to 1000	CCC(Sc1ccc2nnc(-c3cccs3)n2n1)C(=O)N1CCCC(C)C1 (centres unmarked) [Example 51, 1-(3-methylpiperidin-1-yl)-2-((3-(thiophen-2-yl)-[1,2,4]triazolo[4,3-b]pyridazin-6-yl)thio)butan-1-one]
100 to 1000	CCC(Sc1ccc2nnc(-c3cccs3)n2n1)C(=O)NC1CCCCC1 (centres unmarked) [Example 52, N-cyclohexyl-2-((3-(thiophen-2-yl)-[1,2,4]triazolo[4,3-b]pyridazin-6-yl)thio)butanamide]
≥ 5000	CCC(Sc1ccc2nnc(-c3ccc(C(F)(F)F)cc3)n2n1)C(=O)O (centres unmarked) [Example 53, 2-((3-(4-(trifluoromethyl)phenyl)-[1,2,4]triazolo[4,3-b]pyridazin-6-yl)thio)butanoic acid]
100 to 1000	CCC(Sc1ccc2nnc(-c3ccc(F)c(F)c3)n2n1)C(=O)O (centres unmarked) [Example 54, 2-((3-(3,4-difluorophenyl)-[1,2,4]triazolo[4,3-b]pyridazin-6-yl)thio)butanoic acid]
100 to 1000	CCC(Sc1ccc2nnc(-c3ccccc3F)n2n1)C(=O)O (centres unmarked) [Example 55, 2-((3-(2-fluorophenyl)-[1,2,4]triazolo[4,3-b]pyridazin-6-yl)thio)butanoic acid]
100 to 1000	CCC(Sc1ccc2nnc(-c3cccc(F)c3)n2n1)C(=O)O (centres unmarked) [Example 56, 2-((3-(3-fluorophenyl)-[1,2,4]triazolo[4,3-b]pyridazin-6-yl)thio)butanoic acid]
1000 to 5000	Cc1ccc(-c2nnc3ccc(SCC(=O)N4CCCCC4)nn23)s1 [Example 57, 2-((3-(5-methylthiophen-2-yl)-[1,2,4]triazolo[4,3-b]pyridazin-6-yl)thio)-1-(piperidin-1-yl)ethanone]

IC50 [nM]	Compound
≥ 5000	CCC(Sc1ccc2nnc(-c3cccs3)n2n1)C(=O)N1CCN(C)CC1 (centres unmarked) [Example 58, 1-(4-methylpiperazin-1-yl)-2-((3-(thiophen-2-yl)-[1,2,4]triazolo[4,3-b]pyridazin-6-yl)thio)butan-1-one]
≥ 5000	CCC(Sc1ccc2nnc(-c3ccc(C)s3)n2n1)C(=O)N1CCCCC1 (centres unmarked) [Example 59, 2-((3-(5-methylthiophen-2-yl)-[1,2,4]triazolo[4,3-b]pyridazin-6-yl)thio)-1-(piperidin-1-yl)butan-1-one]
100 to 1000	CCC(Sc1ccc2nnc(-c3nccs3)n2n1)C(=O)N1CCCCC1 (centres unmarked) [Example 60, 1-(piperidin-1-yl)-2-((3-(thiazol-2-yl)-[1,2,4]triazolo[4,3-b]pyridazin-6-yl)thio)butan-1-one]
≥ 5000	CCC(Sc1ccc2nnc(-c3ccc(Cl)s3)n2n1)C(=O)O (centres unmarked) [Example 61, 2-((3-(5-chlorothiophen-2-yl)-[1,2,4]triazolo[4,3-b]pyridazin-6-yl)thio)butanoic acid]
100 to 1000	CCC(Sc1ccc2nnc(-c3ccc(Cl)s3)n2n1)C(=O)N1CCCCC1 (centres unmarked) [Example 62, 2-((3-(5-chlorothiophen-2-yl)-[1,2,4]triazolo[4,3-b]pyridazin-6-yl)thio)-1-(piperidin-1-yl)butan-1-one]
100 to 1000	CCC(Sc1ccc2nnc(-c3ccc(Cl)s3)n2n1)C(=O)N1CCCC1 (centres unmarked) [Example 63, 2-((3-(5-chlorothiophen-2-yl)-[1,2,4]triazolo[4,3-b]pyridazin-6-yl)thio)-1-(pyrrolidin-1-yl)butan-1-one]
100 to 1000	CCC(Sc1ccc2nnc(-c3ccsc3)n2n1)C(=O)N1CCCCC1 (centres unmarked) [Example 64, 1-(piperidin-1-yl)-2-((3-(thiophen-3-yl)-[1,2,4]triazolo[4,3-b]pyridazin-6-yl)thio)butan-1-one]
≥ 5000	CCOC(=O)C(CC)Sc1ccc2nnc(-c3ccc(OC)cc3)n2n1 (centres unmarked) [Example 65, ethyl 2-((3-(4-methoxyphenyl)-[1,2,4]triazolo[4,3-b]pyridazin-6-yl)thio)butanoate]
100 to 1000	CCC(Sc1ccc2nnc(-c3ccc(OC)cc3)n2n1)C(N)=O (centres unmarked) [Example 66, 2-((3-(4-methoxyphenyl)-[1,2,4]triazolo[4,3-b]pyridazin-6-yl)thio)butanamide]
100 to 1000	CCC(Sc1ccc2nnc(-c3ccc(OC)cc3)n2n1)C(=O)N1CCCCC1 (centres unmarked) [Example 67, 2-((3-(4-methoxyphenyl)-[1,2,4]triazolo[4,3-b]pyridazin-6-yl)thio)-1-(piperidin-1-yl)butan-1-one]
≥ 5000	CCOC(=O)C(CC)Sc1ccc2nnc(-c3ccccc3OC)n2n1 (centres unmarked) [Example 68, ethyl 2-((3-(2-methoxyphenyl)-[1,2,4]triazolo[4,3-b]pyridazin-6-yl)thio)butanoate]
≥ 5000	CCC(Sc1ccc2nnc(-c3ccccc3OC)n2n1)C(N)=O (centres unmarked) [Example 69, 2-((3-(2-methoxyphenyl)-[1,2,4]triazolo[4,3-b]pyridazin-6-yl)thio)butanamide]
≥ 5000	CCC(Sc1ccc2nnc(-c3ccccc3OC)n2n1)C(=O)N1CCCCC1 (centres unmarked) [Example 70, 2-((3-(2-methoxyphenyl)-[1,2,4]triazolo[4,3-b]pyridazin-6-yl)thio)-1-(piperidin-1-yl)butan-1-one]
1000 to 5000	CCOC(=O)C(CC)Sc1ccc2nnc(-c3cccc(OC)c3)n2n1 (centres unmarked) [Example 71, ethyl 2-((3-(3-methoxyphenyl)-[1,2,4]triazolo[4,3-b]pyridazin-6-yl)thio)butanoate]
100 to 1000	CCC(Sc1ccc2nnc(-c3cccc(OC)c3)n2n1)C(N)=O (centres unmarked) [Example 72, 2-((3-(3-methoxyphenyl)-[1,2,4]triazolo[4,3-b]pyridazin-6-yl)thio)butanamide]
100 to 1000	CCC(Sc1ccc2nnc(-c3cccc(OC)c3)n2n1)C(=O)N1CCCCC1 (centres unmarked) [Example 73, 2-((3-(3-methoxyphenyl)-[1,2,4]triazolo[4,3-b]pyridazin-6-yl)thio)-1-(piperidin-1-yl)butan-1-one]
1000 to 5000	CCOC(=O)C(CC)Sc1ccc2nnc(-c3ccccc3F)n2n1 (centres unmarked) [Example 74, ethyl 2-((3-(2-fluorophenyl)-[1,2,4]triazolo[4,3-b]pyridazin-6-yl)thio)butanoate]
1000 to 5000	CCOC(=O)C(CC)Sc1ccc2nnc(-c3cccc(F)c3)n2n1 (centres unmarked) [Example 75, ethyl 2-((3-(3-fluorophenyl)-[1,2,4]triazolo[4,3-b]pyridazin-6-yl)thio)butanoate]
1000 to 5000	CCOC(=O)C(CC)Sc1ccc2nnc(-c3ccc(F)c(F)c3)n2n1 (centres unmarked) [Example 76, ethyl 2-((3-(3,4-difluorophenyl)-[1,2,4]triazolo[4,3-b]pyridazin-6-yl)thio)butanoate]

Reference: patent US9187484B2 (Southern Research Institute, priority 2012, dated 2015)
